This note sets out measurements from patent US3970643A, “5"-Amino-3',5"-dideoxybutirosin A and derivatives” (Parke, Davis & Company, priority 1975, dated 1976).

One may read the MIC as the lowest concentration found to suppress growth. Lower therefore signals a more susceptible organism.

Converted amounts (≈) assume the structure as drawn.

Common to all, as to test: MIC, microtitration in TSB, in vitro antibacterial screening
Type in all cases: cell-based

One experiment concerns Pseudo. aerug. 130. The settings on record: Pseudomonas aeruginosa, Pseudo. aerug. 130, gentamicin resistant. From the text: (§1) They show activity when tested by well-recognized in vitro anti-bacterial screening procedures.
^c Gentamicin resistant

For another experiment, the system named is Pseudo. aerug. UI-18. The settings on record: Pseudomonas aeruginosa.
Excerpt: as §1

A further experiment concerns Pseudo. aerug. 74C-1. To be noted: Pseudomonas aeruginosa.
Excerpt: as §1

Another experiment relates to Klebs. pneumoniae MGH-1. To be noted: Klebsiella pneumoniae, MGH1.
Excerpt: as §1

The subject of another experiment is Pseudo. aerug. VAD12-7-7. To be noted: Pseudomonas aeruginosa.
Excerpt: as §1

Another experiment has as its system Serr. marcescens IMM-5. To be noted: Serratia marcescens, IMM5.
Excerpt: as §1

For the next experiment, the system named is Pseudo. aerug. 733. The settings on record: Pseudomonas aeruginosa.
Excerpt: as §1

The next experiment deals with Staph auretis S18713. The settings on record: Staph auretis S18713, butirosin resistant.
Excerpt: as §1

The next experiment concerns Pseudo. aerug. No. 28. To be noted: Pseudomonas aeruginosa.
Excerpt: as §1

Another experiment has as its system Pseudo. aerug. Aquilar. The settings on record: Pseudomonas aeruginosa, butirosin resistant.
Excerpt: as §1

The test system of the next experiment is Entero. cloacae IMM-50. To be noted: Enterobacter cloacae, IMM50.
Excerpt: as §1

Another experiment has as its system Pseudo. aerug. 58.38. The settings on record: Pseudomonas aeruginosa.
Excerpt: as §1

The next experiment relates to Pseudo. aerug. LA-3399. The settings on record: Pseudomonas aeruginosa.
Excerpt: as §1

The subject of another experiment is Pseudo. aerug. G-76. To be noted: Pseudomonas aeruginosa, Pseudo. aerug. G-76, butirosin and gentamicin resistant.
Excerpt: as §1
(§2) ^b Butirosin and Gentamicin resistant

The test system of the next experiment is Esch. coli JR-76.2. The settings on record: Escherichia coli, JR76.2.
Excerpt: as §1, §2

Regarding `NCC[C@H](O)C(=O)N[C@@H]1C[C@H](N)[C@@H](O[C@H]2O[C@H](CN)[C@@H](O)C[C@H]2N)[C@H](O[C@@H]2O[C@H](CN)[C@H](O)[C@H]2O)[C@H]1O` [I carbonate, 5"-amino-3',5"-dideoxybutirosin A], the MIC in the experiment with Pseudo. aerug. 130 worked out at 6.3 µg/mL (≈ 11.7 µM); in the experiment with Pseudo. aerug. UI-18 it was 3.1 µg/mL (≈ 5.76 µM); in the experiment on Pseudo. aerug. 74C-1, 3.1 µg/mL (≈ 5.76 µM); with Klebs. pneumoniae MGH-1, 6.3 µg/mL (≈ 11.7 µM); against Pseudo. aerug. VAD12-7-7 it was 3.1 µg/mL (≈ 5.76 µM); against Serr. marcescens IMM-5 it was 25 µg/mL (≈ 46.4 µM). Besides, the minimum inhibitory concentration (MIC) in the experiment with Pseudo. aerug. 733 is 3.1 µg/mL (≈ 5.76 µM); with Staph auretis S18713, 3.1 µg/mL (≈ 5.76 µM); with Pseudo. aerug. No. 28 it was 1.6 µg/mL (≈ 2.97 µM); with Pseudo. aerug. Aquilar, 12.5 µg/mL (≈ 23.2 µM); against Entero. cloacae IMM-50, 6.3 µg/mL (≈ 11.7 µM); against Pseudo. aerug. 58.38, 3.1 µg/mL (≈ 5.76 µM). Besides, the MIC in the experiment on Pseudo. aerug. LA-3399 came out at 12.5 µg/mL (≈ 23.2 µM); with Pseudo. aerug. G-76 it was 12.5 µg/mL (≈ 23.2 µM); in the experiment with Esch. coli JR-76.2, 25 µg/mL (≈ 46.4 µM).
